Experimental data from patent US8791132B2, “Compounds and methods for treatment of hypertension” (Medivation Technologies, Inc., priority 2011, dated 2014).
Where two headings read alike, the source gives them in different places.

Experiments:
[1] = target: T1, human recombinant adrenergic α2A receptor (Homo sapiens, UniProt P08913); assay: Radioligand binding, adrenergic α2A ([3H]MK-912); conditions: for Percentage inhibition of ligand binding, Adrenergic α2A: 0.1 µM
T1 construct: expressed in transfected cells; host or cells: insect Sf9 cells
T1 sequence (P08913 1-465): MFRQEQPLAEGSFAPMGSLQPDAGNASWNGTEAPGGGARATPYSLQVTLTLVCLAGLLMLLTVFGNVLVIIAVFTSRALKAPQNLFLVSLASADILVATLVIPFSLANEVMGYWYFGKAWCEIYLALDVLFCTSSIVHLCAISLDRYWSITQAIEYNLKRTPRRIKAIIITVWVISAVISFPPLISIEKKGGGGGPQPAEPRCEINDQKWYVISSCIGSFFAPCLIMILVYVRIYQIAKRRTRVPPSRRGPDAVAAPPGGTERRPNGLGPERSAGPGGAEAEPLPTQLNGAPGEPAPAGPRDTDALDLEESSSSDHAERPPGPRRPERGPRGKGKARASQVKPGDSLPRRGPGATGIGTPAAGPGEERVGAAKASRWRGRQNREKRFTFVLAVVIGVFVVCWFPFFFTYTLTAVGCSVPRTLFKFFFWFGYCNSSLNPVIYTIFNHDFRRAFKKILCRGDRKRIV
In short: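 Displacement of 1 nM [3H]MK-912 from receptor produced in insect Sf9 cells was measured after 60 min at 25 °C. Readout: percent inhibition of specific binding.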

[2] = target: T2, human recombinant adrenergic α2B receptor (Homo sapiens, UniProt P18089); assay: Radioligand binding, adrenergic α2B ([3H]Rauwolscine); conditions: for Percentage inhibition of ligand binding, Adrenergic α2B: 0.03 µM
T2 construct: expressed in transfected cells; host or cells: CHO-K1
T2 sequence (P18089 1-450): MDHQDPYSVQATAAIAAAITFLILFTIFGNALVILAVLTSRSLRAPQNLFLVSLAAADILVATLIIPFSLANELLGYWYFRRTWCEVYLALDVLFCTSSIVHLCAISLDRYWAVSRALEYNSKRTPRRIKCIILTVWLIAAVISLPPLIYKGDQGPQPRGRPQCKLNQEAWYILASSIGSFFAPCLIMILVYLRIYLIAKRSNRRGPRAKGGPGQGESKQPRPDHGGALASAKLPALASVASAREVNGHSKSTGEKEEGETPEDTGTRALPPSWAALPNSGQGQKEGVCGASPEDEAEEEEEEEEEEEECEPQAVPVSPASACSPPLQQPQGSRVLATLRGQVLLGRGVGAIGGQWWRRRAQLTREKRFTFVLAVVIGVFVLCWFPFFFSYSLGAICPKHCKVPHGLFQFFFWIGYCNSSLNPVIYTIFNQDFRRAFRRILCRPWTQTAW
In short: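 Readout: percent inhibition of specific [3H]Rauwolscine binding, measured by filtration and counting. Conditions: CHO-K1 cell-expressed receptor, 2.5 nM radioligand, 60 min, 25° C, Tris-HCl pH 7.4 buffer with MgCl2, EDTA, BSA. Non-specific binding: 10 μM Prazosin.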

[3] = target: T3, rat adrenergic α1B receptor (Rattus norvegicus, UniProt P15823); assay: Radioligand binding, adrenergic α1B ([3H]Prazosin); conditions: for Percentage inhibition of ligand binding, Adrenergic α1B: 0.1 µM
T3 construct: rat adrenergic α1B receptor obtained from Wistar Rat liver; from tissue; host or cells: Wistar rat liver
T3 sequence (P15823 1-515): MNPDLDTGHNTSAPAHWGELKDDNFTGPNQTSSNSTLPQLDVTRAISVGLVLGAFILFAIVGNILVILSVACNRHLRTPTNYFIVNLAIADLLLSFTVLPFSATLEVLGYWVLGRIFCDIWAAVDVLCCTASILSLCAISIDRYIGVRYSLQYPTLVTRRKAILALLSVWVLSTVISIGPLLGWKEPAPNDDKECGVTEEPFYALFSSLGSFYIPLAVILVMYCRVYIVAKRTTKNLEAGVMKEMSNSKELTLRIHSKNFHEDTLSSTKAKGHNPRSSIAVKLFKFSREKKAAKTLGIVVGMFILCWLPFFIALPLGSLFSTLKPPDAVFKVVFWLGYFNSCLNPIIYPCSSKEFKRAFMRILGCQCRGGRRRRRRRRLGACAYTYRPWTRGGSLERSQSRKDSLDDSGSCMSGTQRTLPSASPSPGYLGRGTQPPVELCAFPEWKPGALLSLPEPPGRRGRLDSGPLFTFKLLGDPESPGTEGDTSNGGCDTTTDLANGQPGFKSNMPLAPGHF
In short: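 Specific binding, taken as total minus that remaining with 10 μM phentolamine, is measured after filtration and counting. Rat liver receptor preparation and 0.25 nM [3H]prazosin are incubated with compound in 50 mM Tris-HCl (pH 7.4, 0.5 mM EDTA) at 25° C for 60 min. Activity is reported as percent inhibition.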

[4] = read-out: Percentage inhibition of ligand binding, Adrenergic α2A (0.1 μM), compound at 0.1 μM, [3H]MK-912, repeat datapoints each shown
[5] = read-out: Percentage inhibition of ligand binding, Adrenergic α2B (0.03 μM), compound at 0.03 μM, [3H]Rauwolscine, repeat datapoints each shown
[6] = read-out: Percentage inhibition of ligand binding, Adrenergic α1B (0.1 μM), compound at 0.1 μM, [3H]Prazosin, repeat datapoints each shown
[7] = 0.1 μM compound, read-out: Percentage inhibition of ligand binding, Adrenergic α2A
[8] = 0.03 μM compound, read-out: Percentage inhibition of ligand binding, Adrenergic α2B
[9] = 0.1 μM compound, read-out: Percentage inhibition of ligand binding, Adrenergic α1B

Structure (SMILES)	inhibition at 0.1 µM [1, 7]	inhibition at 0.03 µM [2, 8]	inhibition at 0.1 µM [3, 9]	also measured
Cc1ccc2c(c1)c1c(n2CC(O)c2ccncc2C)CCN(C)C1 (stereo not drawn) [133a]	–	–	–	inhibition at 0.1 µM [1, 4]: 13%; inhibition at 0.03 µM [2, 5]: 52%; inhibition at 0.1 µM [3, 6]: 57%
Cc1cnc2c(c1)c1c(n2CCc2cccnc2)CCN2CCCC12 (stereo not drawn) [134a, 9-methyl-6-(2-pyridin-3-yl-ethyl)-2,3,4,5,6,10c-hexahydro-1H-3a,6,7-triaza-cyclopenta[c]fluorene]	–	–	–	inhibition at 0.1 µM [1, 4]: 4%; inhibition at 0.03 µM [2, 5]: 42%; inhibition at 0.1 µM [3, 6]: 27%
Cc1ccc2c(c1)c1c(n2CC(O)c2ccc(C(N)=O)nc2)CCN(C)C1 (stereo not drawn) [144a, 5-[2-(2,8-dimethyl-1,2,3,4-tetrahydro-pyrido[4,3-b]indol-5-yl)-1-hydroxy-ethyl]-pyridine-2-carboxylic acid amide]	–	–	–	inhibition at 0.1 µM [1, 4]: 1%; inhibition at 0.03 µM [2, 5]: 40%; inhibition at 0.1 µM [3, 6]: 57%
Cc1ccc(C(O)Cn2c3c(c4cc(C)ccc42)CN(C)CC3)cc1 (stereo not drawn) [183a, 2-(1,2,3,4-tetrahydro-2,8-dimethylpyrido[4,3-b]indol-5-yl)-1-p-tolylethanol]	–	–	–	inhibition at 0.1 µM [1, 4]: 56%; inhibition at 0.03 µM [2, 5]: 82%; inhibition at 0.1 µM [3, 6]: 77%
C/C(=C\n1c2c(c3cc(C)ccc31)C1CCCN1CC2)c1ccc(F)cc1 (stereo not drawn) [194a, 7-(2-(4-fluorophenyl)prop-1-enyl)-10-methyl-2,3,5,6,7,11c-hexahydro-1H-indolizino[7,8-b]indole]	–	–	–	inhibition at 0.1 µM [1, 4]: 98%; inhibition at 0.03 µM [2, 5]: 106%; inhibition at 0.1 µM [3, 6]: 100%
Cc1ccc2c(c1)c1c(n2CCc2ccc(C)nc2)CCN2CCCC12 (stereo not drawn) [197a, 9-methyl-6-[2-(6-methyl-pyridin-3-yl)-ethyl]-2,3,4,5,6,10c-hexahydro-1H-3a, 6-diaza-cyclopenta[c]fluorene]	–	–	–	inhibition at 0.1 µM [1, 4]: 31%; inhibition at 0.03 µM [2, 5]: 81%; inhibition at 0.1 µM [3, 6]: 82%
C/C(=C\n1c2c(c3cc(C)ccc31)CN(C)CC2)c1ccncc1 [II-2]	49%	96%	74%	–
Cc1cc2c3c(n(CC(C)(O)c4cccnc4)c2cn1)CCN1CCCC31 (stereo not drawn) [II-5]	9%	4%	2%	–
Cc1ccc2c(c1)c1c(n2CC(c2cnccn2)N(C)C)CCN2CCCC12 (stereo not drawn) [II-7, dimethyl-[2-(9-methyl-1,2,3,4,5,10c-hexahydro-3a,6-diaza-cyclopenta[c]fluoren-6-yl)-1-pyrazin-2-yl-ethyl]-amine]	52%	100%	95%	–
CCNC(Cn1c2c(c3cc(C)ccc31)CN(C)CC2)c1ccncc1 (stereo not drawn) [II-8, [2-(2,8-dimethyl-1,2,3,4-tetrahydro-pyrido[4,3-b]indol-5-yl)-1-pyridin-4-yl-ethyl]-ethyl-amine]	9%	70%	6%	–
Cc1ccc2c(c1)c1c(n2CC(NC2CCCC2)c2ccncc2)CCN(C)C1 (stereo not drawn) [II-9, cyclopentyl-[2-(2,8-dimethyl-1,2,3,4-tetrahydro-pyrido[4,3-b]indol-5-yl)-1-pyridin-4-yl-ethyl]-amine]	7%	78%	30%	–
Cc1ccc2c(c1)c1c(n2CC(NC(C)C)c2ccncc2)CCN(C)C1 (stereo not drawn) [II-10, [2-(2,8-dimethyl-1,2,3,4-tetrahydro-pyrido[4,3-b]indol-5-yl)-1-pyridin-4-yl-ethyl]-isopropyl-amine]	10%	47%	7%	–
Cc1ccc2c(c1)c1c(n2CC(N)c2ccc(F)cc2)CCN(C)C1 (stereo not drawn) [II-11, 2-(2,8-dimethyl-3,4-dihydro-1H-pyrido[4,3-b]indol-5(2H)-yl)-1-(4-fluorophenyl)ethanamine]	–	–	–	Percentage inhibition of ligand binding, Adrenergic α2A ([1]; 0.1 μM compound): 25%; Percentage inhibition of ligand binding, Adrenergic α2B ([2]; 0.03 μM compound): 70%; Percentage inhibition of ligand binding, Adrenergic α1B ([3]; 0.1 μM compound): 63%
CNC(Cn1c2c(c3cc(C)ccc31)CN(C)CC2)c1ccc(F)cc1 (stereo not drawn) [II-12, 2-(2,8-dimethyl-3,4-dihydro-1H-pyrido[4,3-b]indol-5(2H)-yl)-1-(4-fluorophenyl)-N-methyl ethanamine]	–	–	–	Percentage inhibition of ligand binding, Adrenergic α2A ([1]; 0.1 μM compound): 11%; Percentage inhibition of ligand binding, Adrenergic α2B ([2]; 0.03 μM compound): 65%; Percentage inhibition of ligand binding, Adrenergic α1B ([3]; 0.1 μM compound): 18%
Cc1ccc2c(c1)c1c(n2CC(NC2CCC2)c2ccncc2)CCN(C)C1 (stereo not drawn) [II-13, cyclobutyl-[2-(2,8-dimethyl-1,2,3,4-tetrahydro-pyrido[4,3-b]indol-5-yl)-1-pyridin-4-yl-ethyl]-amine]	9%	73%	9%	–
Cc1ccc2c(c1)c1c(n2CC(C)(OC(=O)C(C)(C)C)c2cccnc2)CCN(C)C1 (stereo not drawn) [II-16a, 2,2-dimethyl-propionic acid 2-(2,8-dimethyl-1,2,3,4-tetrahydro-pyrido[4,3-b]indol-5-yl)-1-methyl-1-pyridin-3-yl-ethyl ester]	11%	39%	20%	–
Cc1ccc2c(n1)c1c(n2CC(C)(O)c2cccnc2)CCN2CCCC12 (stereo not drawn) [II-17]	4%	7%	8%	–
Cc1ccc2c(c1)c1c(n2CC(C)(OC(=O)c2ccncc2)c2cccnc2)CCN(C)C1 (stereo not drawn) [II-19]	8%	21%	8%	–
CN1CCc2c(c3cc(CO)ccc3n2CC(O)c2ccncc2)C1 (stereo not drawn) [II-60, 2-(8-hydroxymethyl-2-methyl-1,2,3,4-tetrahydro-pyrido[4,3-b]indol-5-yl)-1-pyridin-4-yl-ethanol]	9%	54%	11%	–
CC(O)(Cn1c2c(c3cc(Cl)ccc31)CNCC2)c1ccncc1 (stereo not drawn) [II-62, 1-(8-chloro-1,2,3,4-tetrahydro-pyrido[4,3-b]indol-5-yl)-2-pyridin-4-yl-propan-2-ol]	5%	37%	14%	–
C=CCN1CCc2c(c3cc(C)ccc3n2CC(O)c2ccncc2)C1 (stereo not drawn) [II-63, 2-(2-allyl-1,2,3,4-tetrahydro-8-methylpyrido[4,3-b]indol-5-yl)-1-(pyridin-4-yl)ethanol]	39%	90%	55%	–
Cc1ccc2c(c1)c1c(n2CC(O)c2ccncc2)CCN(CCO)C1 (stereo not drawn) [II-64, 2-[2-(2-hydroxy-ethyl)-8-methyl-1,2,3,4-tetrahydro-pyrido[4,3-b]indol-5-yl]-1-pyridin-4-yl-ethanol]	-3%	54%	23%	–
